Experimental data taken from paper PMC6302903, “Protein and Chemical Determinants of BL-1249 Action and Selectivity for K2P Channels” (ACS Chemical Neuroscience, 2018).

Assays:
[1] = target: T1, K2P2.1(TREK-1) G137I (Mus musculus, UniProt P97438, G152I); experiment: TEVC of C-type gate activating mutant G137I; format: cell-based; conditions: Xenopus oocytes
T1 construct: expressed in transfected cells; host or cells: Xenopus laevis oocytes, mRNA injected
Source text: Diverse types of physical and chemical stimuli activate K2P2.1(TREK-1) by stabilizing the C-type gate and switching the channel into a “leak” mode that is characterized by a loss of outward rectification of the potassium current.[6],[8] Accordingly, we used inside-out patch clamp experiments of K2P2.1(TREK-1) expressed in HEK293 cells to test whether BL-1249 acts on the C-type gate. […] Together with previous single point concentration studies showing the insensitivity of K2P2.1(TREK-1) W275S in mammalian cells,[40] our data provide definitive evidence that BL-1249 activates K2P2.1(TREK-1) by stimulating the C-type gate. […]
(§1) Xenopus laevis oocytes were harvested in accordance with UCSF IACUC protocol AN129690 and digested in calcium-free ND-96 (96 mM NaCl, 2 mM KCl, 3.8 mM MgCl2) immediately following harvest, as previously described.[6],[10] […] Defolliculated stage V–VI oocytes were injected with 0.2–6.0 ng of mRNA in 50 nL, and currents were recorded 24–48 h after injection. mRNA was synthesized from plasmid DNA using mMessage mMachine Kit (T7 promoter, Ambion, Life Technologies) and purified using RNEasy Kit (Qiagen). […] Once stabilized basal currents were recorded, compounds were perfused at various concentrations in standard ND96 and currents were allowed to increase to stabilization before recording final current. […]

[2] = tested on: K2P18.1(TRESK); design: method as in PMID 27641472; conditions: cited from earlier work
[3] = target: T2, K2P3.1(TASK-1) (Mus musculus, UniProt O35111); experiment: TEVC of K2P3.1(TASK-1) in Xenopus oocytes; format: cell-based; conditions: concentrations up to the solubility limit (∼80 μM)
T2 construct: expressed in transfected cells; host or cells: Xenopus laevis oocytes injected with mRNA made from pGEMHE/pMO
T2 sequence (O35111 whole entry): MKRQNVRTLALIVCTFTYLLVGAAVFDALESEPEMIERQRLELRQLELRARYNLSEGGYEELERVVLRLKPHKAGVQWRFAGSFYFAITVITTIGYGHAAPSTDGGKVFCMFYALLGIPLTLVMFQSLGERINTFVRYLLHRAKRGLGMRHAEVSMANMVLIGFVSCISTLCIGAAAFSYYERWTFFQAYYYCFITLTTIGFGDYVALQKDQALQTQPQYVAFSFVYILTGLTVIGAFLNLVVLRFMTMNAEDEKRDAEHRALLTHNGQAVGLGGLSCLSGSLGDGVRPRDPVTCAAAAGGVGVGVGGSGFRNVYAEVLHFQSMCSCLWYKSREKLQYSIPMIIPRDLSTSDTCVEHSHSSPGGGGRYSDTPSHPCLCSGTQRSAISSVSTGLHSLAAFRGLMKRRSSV
Protocol: BL-1249 activates K2P2.1(TREK-1)[18],[40] and K2P10.1(TREK-2),[7] but its effects on other K2P channels have not been characterized. […] In order to test if the original 10 μM assay had missed BL-1249 effects in other K2P channels, we tested concentrations of BL-1249 up to the solubility limit (∼80 μM) against the other K2P subfamily representatives. […]
as §1, with “current. Fold activation upon compound application is expressed as I/I0 (0 mV), derived from the current at 0 mV in the presence of compound divided by the basal current at 0 mV in standard ND96 without compound. Data were analyzed and plotted using Graphpad Prism Version 5 (GraphPad Software, San Diego California USA, www.graphpad.com).” for “current.”

T1 sequence (P97438 1-411 isoform P97438-2 G137I): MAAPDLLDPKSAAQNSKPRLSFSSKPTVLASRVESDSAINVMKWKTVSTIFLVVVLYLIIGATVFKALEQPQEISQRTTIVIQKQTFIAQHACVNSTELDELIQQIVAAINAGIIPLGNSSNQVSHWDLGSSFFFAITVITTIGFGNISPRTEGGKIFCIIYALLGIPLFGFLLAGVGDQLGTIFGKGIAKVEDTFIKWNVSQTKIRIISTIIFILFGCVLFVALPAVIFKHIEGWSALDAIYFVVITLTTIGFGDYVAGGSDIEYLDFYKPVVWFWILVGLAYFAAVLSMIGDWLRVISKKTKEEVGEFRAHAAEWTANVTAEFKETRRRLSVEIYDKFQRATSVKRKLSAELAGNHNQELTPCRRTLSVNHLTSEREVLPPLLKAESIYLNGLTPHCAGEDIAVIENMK

**Q.** Which results are given for `c1ccc(-c2nnn[nH]2)c(Nc2cccc3c2CCCC3)c1` [BL-1249, (5,6,7,8-tetrahydro-naphthalen-1-yl)-[2-(1H-tetrazol-5-yl)-phenyl]-amine]?
**A.** EC50 [1]: > 60 µM; sensitivity of K2P2.1(TREK-1) G137I to compound [1]: insensitive; functional effect on K2P18.1(TRESK) [2]: activator; activation of K2P3.1(TASK-1) [3]: failed to find evidence for activation
